# Assay results: ChEMBL document CHEMBL1201862, “PubChem BioAssay data set” (2004)
# Active and inactive are the calls of the source. Rule as the data show it, for most assays here: actives have a measured EC50 and inactives only a lower limit.
# Assays:
# [1] = inhibitors of firefly luciferase expression or activity, dose response, H4 neuroglioma cells, luminescence (AID 1990); type: functional, cell-based
# [2] = inhibitors of SNCA 5'UTR-driven reporter translation, confirmation, H4 neuroglioma cells, luminescence (AID 1988); type: functional, cell-based
# [3] = cytotoxicity in HEK-293T cells, dose response, cytotoxicity control for BCR NF-kB inhibitor project, luminescence, B-cell screen hits (AID 489021); type: functional, cell-based;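 also: HEK-293T cells carrying an NF-kB luciferase reporter; cells exposed to compound for about 14 hours before viability readout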
# [4] = Luminescence Cell-Based Dose Response HTS to Identify Inhibitors of 5'UTR Stem-Loop Driven Prion Protein mRNA Translation in H4 Neuroglioblastoma Cells. [Related pubchem assays: 1827 (Project Summary), 1813 (Primary HTS)]; type: functional
# [5] = biological target: T1, Heat shock factor protein 1 (Mus musculus, UniProt P38532); test: HSF1 potentiators in luciferase reporter cells, confirmation, cell-based, NIH3T3, luminescence, dose retest (AID 435004); type: functional;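 also: stress induced by proteasome inhibitor MG132 added 30 min after compound; luciferase reporter driven by HSF1 response element in NIH3T3 cells; actives raise luminescence as potentiators of the MG132 stress response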
# T1 sequence (P38532 whole entry): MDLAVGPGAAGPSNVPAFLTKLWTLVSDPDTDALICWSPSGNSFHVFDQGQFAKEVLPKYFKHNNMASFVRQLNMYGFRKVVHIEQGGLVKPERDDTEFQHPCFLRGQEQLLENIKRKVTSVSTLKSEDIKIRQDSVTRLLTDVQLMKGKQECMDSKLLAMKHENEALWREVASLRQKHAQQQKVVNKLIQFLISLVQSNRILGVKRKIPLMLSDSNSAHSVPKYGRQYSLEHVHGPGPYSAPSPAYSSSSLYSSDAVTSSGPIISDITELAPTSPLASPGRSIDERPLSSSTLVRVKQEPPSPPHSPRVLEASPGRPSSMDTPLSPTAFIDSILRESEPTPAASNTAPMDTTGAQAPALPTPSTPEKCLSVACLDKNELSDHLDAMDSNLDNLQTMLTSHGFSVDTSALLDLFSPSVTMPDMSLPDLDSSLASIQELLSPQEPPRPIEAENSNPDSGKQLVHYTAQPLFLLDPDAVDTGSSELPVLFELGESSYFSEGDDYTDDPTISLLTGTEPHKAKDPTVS
# [6] = biological target: T2, Sentrin-specific protease 8 (Homo sapiens, UniProt Q96LD8); type: functional
# T2 sequence (Q96LD8 whole entry): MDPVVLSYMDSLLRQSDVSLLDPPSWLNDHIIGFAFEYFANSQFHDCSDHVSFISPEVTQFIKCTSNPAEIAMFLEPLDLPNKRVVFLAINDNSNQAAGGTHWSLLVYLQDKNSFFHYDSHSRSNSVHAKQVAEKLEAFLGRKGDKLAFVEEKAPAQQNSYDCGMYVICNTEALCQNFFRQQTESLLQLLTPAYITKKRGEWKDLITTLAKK
# [7] = biological target: T2, Sentrin-specific protease 8; type: functional; remark: listed apart in the source
# [8] = cytotoxicity toward DRD oncogenic fibroblasts, dose response, cell-based, non-viral oncogenic, luminescence (AID 1934); type: functional; conditions: Homo sapiens
# BJ [9] = test: cytotoxicity toward BJ-TERT-LT-ST fibroblasts, dose response, cell-based, RAS-independent, luminescence (AID 1935); type: functional; conditions: Homo sapiens;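 also: BJ fibroblasts immortalized with TERT plus LT and ST oncogenes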
# Nonstructural protein 1 = Nonstructural protein 1 (Influenza A virus, UniProt Q194T2); type: functional, Influenza A virus (A/California/07/2009(H1N1))
# BJ [10] = test: cells; type: functional, cell-based; conditions: Homo sapiens
# [11] = biological target: Heat shock protein HSP 90-alpha (Homo sapiens, UniProt P07900); type: functional, organism-based
# [12] = C. albicans growth with fluconazole, confirmation, fluorescence, retest (AID 2467); type: functional, cell-based
# BJ [13] = test: cytotoxicity toward BJ-TERT fibroblasts, dose response, cell-based, RAS-independent, luminescence (AID 1933); type: functional; conditions: Homo sapiens
# [14] = biological target: T3, Serine/threonine-protein phosphatase (Candida dubliniensis (strain CD36 / CBS 7987 / NCPF 3949 / NRRLY-17841) (Yeast), UniProt B9W6M3); test: calcineurin pathway inhibitors in yeast reporter, dose response, S. cerevisiae, CDRE-lacZ, luminescence, secondary (AID 2388); type: functional, cell-based;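 also: yeast reporter cells carrying a calcineurin-responsive lacZ construct stimulated with calcium chloride; luminescent beta-galactosidase reporter signal in whole cells rather than isolated phosphatase activity; potency for inhibition where a drop in reporter signal means calcineurin blockade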
# T3 sequence (B9W6M3 whole entry): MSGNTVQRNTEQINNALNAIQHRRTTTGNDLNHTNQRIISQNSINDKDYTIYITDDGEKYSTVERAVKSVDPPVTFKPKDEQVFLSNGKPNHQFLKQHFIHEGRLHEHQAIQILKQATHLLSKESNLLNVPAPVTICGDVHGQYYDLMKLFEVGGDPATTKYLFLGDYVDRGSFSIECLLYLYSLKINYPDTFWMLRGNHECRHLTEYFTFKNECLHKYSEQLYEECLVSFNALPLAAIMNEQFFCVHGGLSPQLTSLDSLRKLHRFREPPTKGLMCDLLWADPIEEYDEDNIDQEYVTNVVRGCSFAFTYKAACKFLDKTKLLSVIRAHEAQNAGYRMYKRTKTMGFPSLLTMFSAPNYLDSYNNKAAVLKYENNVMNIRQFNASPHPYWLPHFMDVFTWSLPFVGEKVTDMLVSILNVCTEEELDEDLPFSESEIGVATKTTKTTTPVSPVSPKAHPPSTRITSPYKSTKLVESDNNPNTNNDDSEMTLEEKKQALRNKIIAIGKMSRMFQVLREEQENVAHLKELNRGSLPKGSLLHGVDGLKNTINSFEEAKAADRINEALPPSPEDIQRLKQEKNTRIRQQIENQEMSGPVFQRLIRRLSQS
# BJ [15] = test: cytotoxicity toward Ras-transformed BJeLR fibroblasts, dose response, cell-based, alamar blue fluorescence, cherrypicked samples (AID 2631); type: functional; conditions: Homo sapiens;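 also: confirmatory dose-response assay in RAS-dependent BJ fibroblasts engineered with TERT, LT and ST, with cytotoxicity read by fluorescence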
# [16] = biological target: ATP-dependent molecular chaperone HSP82 (Candida albicans (strain WO-1) (Yeast), UniProt C4YTQ8); test: loss of DOC-induced GRE-beta-galactosidase reporter signal, dose response, Hsp90 inhibitor project, S. cerevisiae, luminescence (AID 2400); type: functional, cell-based;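 also: beta-galactosidase luminescence from glucocorticoid response element reporter as proxy for Hsp90 function; inhibitor potency where signal loss means Hsp90 inhibition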
# [17] = NIH-3T3 fibroblast cytotoxicity, dose response, cytotoxicity control, cell-based, fluorescence, Alamar Blue, secondary assay (AID 2327); type: functional;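 also: NIH-3T3 mouse fibroblasts cultured with fluconazole at 8 µg/mL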
# [18] = biological target: T4, Mannose-6-phosphate isomerase (Homo sapiens, UniProt P34949); test: human PMI inhibitors, high substrate, primary screen, biochemical, fluorescence intensity, high mannose 6-phosphate (AID 1220)
# T4 sequence (P34949 whole entry): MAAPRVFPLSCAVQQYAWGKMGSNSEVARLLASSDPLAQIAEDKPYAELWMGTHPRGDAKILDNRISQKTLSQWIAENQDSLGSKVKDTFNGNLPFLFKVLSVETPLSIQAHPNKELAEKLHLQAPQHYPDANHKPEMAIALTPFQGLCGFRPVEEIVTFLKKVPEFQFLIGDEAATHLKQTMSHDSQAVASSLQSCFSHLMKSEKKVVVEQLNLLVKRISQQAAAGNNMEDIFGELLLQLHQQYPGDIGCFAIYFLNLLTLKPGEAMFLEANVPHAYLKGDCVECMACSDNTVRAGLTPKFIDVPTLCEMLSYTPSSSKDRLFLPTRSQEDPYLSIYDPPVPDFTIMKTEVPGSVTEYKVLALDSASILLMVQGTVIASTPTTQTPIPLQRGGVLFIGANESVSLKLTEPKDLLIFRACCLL
# [19] = biological target: DNA dC->dU-editing enzyme APOBEC-3G (Homo sapiens, UniProt Q9HC16); test: Dose Response confirmation of small molecule APOBEC3G DNA Deaminase Inhibitors via a fluorescence-based single-stranded DNA deaminase assay. [Related pubchem assays (depositor defined):AID493012, AID493028]; type: functional
# Cytochrome P450 2D6 = Cytochrome P450 2D6 (Homo sapiens, UniProt P10635);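 also: CYP2D6 member of a cytochrome P450 panel assay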
# Cytochrome P450 1A2 = biological target: T5, Cytochrome P450 1A2 (Homo sapiens, UniProt P05177);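 also: PubChem cytochrome P450 panel assay, CYP1A2 panel member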
# T5 sequence (P05177 whole entry): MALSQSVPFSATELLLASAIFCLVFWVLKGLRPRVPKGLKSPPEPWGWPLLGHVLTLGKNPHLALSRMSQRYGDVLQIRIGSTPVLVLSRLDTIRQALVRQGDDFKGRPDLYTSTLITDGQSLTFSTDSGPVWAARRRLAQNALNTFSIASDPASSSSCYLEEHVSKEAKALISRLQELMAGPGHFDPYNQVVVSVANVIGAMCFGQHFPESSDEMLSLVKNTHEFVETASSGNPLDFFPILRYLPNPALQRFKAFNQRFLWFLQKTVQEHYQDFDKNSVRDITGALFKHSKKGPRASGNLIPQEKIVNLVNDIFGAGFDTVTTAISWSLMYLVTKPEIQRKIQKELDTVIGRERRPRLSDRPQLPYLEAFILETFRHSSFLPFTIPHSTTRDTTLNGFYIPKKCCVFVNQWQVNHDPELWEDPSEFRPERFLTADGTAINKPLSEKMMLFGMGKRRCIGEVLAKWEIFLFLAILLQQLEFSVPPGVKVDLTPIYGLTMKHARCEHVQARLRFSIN
# [20] = Luminescence Cell-Based Dose Confirmation HTS to Identify Inhibitors of Platelet Dense Granule Release. [Related pubchem assays: 1663 (Primary HTS), 1678 (Summary of Project)]; type: functional
# [21] = biological target: Luciferin 4-monooxygenase (Photinus pyralis, UniProt P08659); test: firefly luciferase enzyme inhibitors, dose response, biochemical, luminescence (AID 1891)
# [22] = biological target: T6, Microphthalmia-associated transcription factor (Homo sapiens, UniProt O75030); test: TRPM1 promoter luciferase signal decrease, dose response, MITF inhibitor project, cell-based, SK-MEL-5, cherry-picked, set 3 (AID 493073); type: functional
# T6 sequence (O75030 whole entry): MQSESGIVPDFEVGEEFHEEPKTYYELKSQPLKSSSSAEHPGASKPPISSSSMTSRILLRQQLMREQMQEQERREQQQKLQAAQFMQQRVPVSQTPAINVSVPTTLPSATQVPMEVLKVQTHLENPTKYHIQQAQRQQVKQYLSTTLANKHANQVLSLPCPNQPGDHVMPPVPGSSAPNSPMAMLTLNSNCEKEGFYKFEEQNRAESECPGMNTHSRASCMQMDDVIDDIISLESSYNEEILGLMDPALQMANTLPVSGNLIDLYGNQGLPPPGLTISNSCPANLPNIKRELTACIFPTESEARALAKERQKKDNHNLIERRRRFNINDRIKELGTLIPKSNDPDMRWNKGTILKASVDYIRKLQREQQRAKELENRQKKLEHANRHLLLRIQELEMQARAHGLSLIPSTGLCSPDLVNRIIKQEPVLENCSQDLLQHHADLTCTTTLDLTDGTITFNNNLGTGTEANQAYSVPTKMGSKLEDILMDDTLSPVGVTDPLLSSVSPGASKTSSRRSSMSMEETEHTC
# Chain of Cytochrome P450 2D6 (P10635 whole entry): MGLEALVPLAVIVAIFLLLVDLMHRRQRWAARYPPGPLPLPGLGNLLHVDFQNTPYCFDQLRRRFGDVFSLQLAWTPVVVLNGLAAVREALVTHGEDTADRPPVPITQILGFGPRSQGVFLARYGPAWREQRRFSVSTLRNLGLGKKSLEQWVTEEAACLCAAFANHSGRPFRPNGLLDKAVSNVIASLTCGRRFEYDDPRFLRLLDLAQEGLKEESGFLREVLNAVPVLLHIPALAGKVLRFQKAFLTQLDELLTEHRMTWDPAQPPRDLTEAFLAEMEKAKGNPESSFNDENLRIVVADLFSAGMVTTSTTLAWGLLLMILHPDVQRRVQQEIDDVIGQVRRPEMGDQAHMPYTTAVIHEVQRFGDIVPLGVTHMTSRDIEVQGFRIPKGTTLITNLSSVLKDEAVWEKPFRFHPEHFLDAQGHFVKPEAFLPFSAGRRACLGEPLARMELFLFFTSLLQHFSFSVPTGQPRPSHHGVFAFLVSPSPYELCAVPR
# Chain of ATP-dependent molecular chaperone HSP82 (C4YTQ8 whole entry): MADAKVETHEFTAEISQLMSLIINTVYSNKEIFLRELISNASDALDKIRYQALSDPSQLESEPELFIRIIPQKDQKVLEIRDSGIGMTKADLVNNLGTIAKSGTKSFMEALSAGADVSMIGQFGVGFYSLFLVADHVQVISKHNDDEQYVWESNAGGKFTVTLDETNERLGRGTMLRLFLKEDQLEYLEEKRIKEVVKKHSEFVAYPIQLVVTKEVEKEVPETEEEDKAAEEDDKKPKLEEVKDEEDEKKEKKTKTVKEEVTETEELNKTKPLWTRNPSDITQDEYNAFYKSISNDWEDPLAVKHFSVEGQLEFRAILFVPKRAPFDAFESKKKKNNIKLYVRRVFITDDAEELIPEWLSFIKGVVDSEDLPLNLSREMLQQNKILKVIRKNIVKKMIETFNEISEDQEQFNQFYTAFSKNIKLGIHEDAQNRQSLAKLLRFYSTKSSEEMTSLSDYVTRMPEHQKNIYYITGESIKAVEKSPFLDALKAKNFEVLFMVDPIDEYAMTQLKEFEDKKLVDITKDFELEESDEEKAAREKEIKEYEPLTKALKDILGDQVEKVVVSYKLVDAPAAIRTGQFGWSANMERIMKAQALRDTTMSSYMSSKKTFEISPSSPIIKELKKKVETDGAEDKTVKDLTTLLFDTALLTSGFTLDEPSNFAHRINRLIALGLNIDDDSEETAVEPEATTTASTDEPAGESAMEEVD
# Chain of DNA dC->dU-editing enzyme APOBEC-3G (Q9HC16 whole entry): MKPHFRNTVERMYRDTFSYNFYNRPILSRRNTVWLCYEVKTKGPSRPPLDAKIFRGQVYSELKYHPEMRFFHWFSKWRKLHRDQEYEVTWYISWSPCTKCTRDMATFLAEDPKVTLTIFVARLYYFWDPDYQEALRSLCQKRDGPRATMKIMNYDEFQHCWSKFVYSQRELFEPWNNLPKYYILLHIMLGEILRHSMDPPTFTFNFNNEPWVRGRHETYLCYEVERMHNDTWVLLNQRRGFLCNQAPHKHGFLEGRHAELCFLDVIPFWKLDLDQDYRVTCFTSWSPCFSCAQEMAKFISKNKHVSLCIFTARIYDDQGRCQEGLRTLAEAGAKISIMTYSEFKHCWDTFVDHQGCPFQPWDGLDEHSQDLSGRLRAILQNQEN
# Chain of Nonstructural protein 1 (Q194T2 whole entry): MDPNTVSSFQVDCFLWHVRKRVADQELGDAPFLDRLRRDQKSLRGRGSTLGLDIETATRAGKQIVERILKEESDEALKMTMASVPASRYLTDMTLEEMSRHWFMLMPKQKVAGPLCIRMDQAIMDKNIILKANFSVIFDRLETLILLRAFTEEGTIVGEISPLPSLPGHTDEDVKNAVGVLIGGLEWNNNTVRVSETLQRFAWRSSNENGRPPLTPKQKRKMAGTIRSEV
# Chain of Luciferin 4-monooxygenase (P08659 whole entry): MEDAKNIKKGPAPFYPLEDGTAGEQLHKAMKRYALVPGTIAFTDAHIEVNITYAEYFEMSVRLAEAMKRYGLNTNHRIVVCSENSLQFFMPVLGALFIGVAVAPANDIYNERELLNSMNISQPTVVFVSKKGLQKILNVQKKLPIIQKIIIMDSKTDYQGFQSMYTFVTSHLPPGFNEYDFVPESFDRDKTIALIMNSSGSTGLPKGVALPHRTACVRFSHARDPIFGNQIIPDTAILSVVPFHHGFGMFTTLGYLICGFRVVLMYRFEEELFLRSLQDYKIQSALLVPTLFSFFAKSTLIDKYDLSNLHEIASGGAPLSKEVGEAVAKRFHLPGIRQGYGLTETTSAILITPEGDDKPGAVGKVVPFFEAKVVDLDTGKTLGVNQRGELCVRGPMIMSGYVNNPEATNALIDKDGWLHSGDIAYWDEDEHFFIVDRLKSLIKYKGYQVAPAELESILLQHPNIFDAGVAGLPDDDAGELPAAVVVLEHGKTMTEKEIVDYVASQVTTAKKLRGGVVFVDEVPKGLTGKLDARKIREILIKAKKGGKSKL
smiles,measurement,setting,value
CCNc1nc(C)c2cc(Br)c(=O)n(CC)c2n1,EC50,[1],15.9 µM (active)
same,EC50,[2],11.5 µM (active)
same,IC50,[3],> 80 µM (inactive)
same,EC50,[4],7.96 µM (active)
CC(=O)C1=C(C)NC2(O)c3ccccc3C(=O)C12O (configuration not stated),EC50,[5],> 260 µM (inactive)
same,IC50,[6],11.1 µM (active)
same,IC50,[7],22.4 µM (active)
O=Cc1ccc(O)c2ncccc12,EC50,[8],16.6 µM (active)
same,EC50,BJ [9],21.1 µM (inconclusive)
same,IC50,Nonstructural protein 1,1.71 µM (active)
same,EC50,BJ [10],33.7 µM (active)
same,AC50,[11],0.552 µM (active)
same,EC50,[12],0.333 µM (active)
same,EC50,BJ [13],4.43 µM (active)
same,EC50,[14],3.93 µM (active)
same,EC50,BJ [15],0.284 µM (active)
same,EC50,[16],11.2 µM (active)
same,EC50,[17],16.1 µM (active)
O=C(NC1=NC(=O)C(F)(C(F)(F)F)S1)NC1CCCCC1 (configuration not stated),IC50,[18],> 50 µM (not active)
same,IC50,[19],32.7 µM (active)
COc1ccc(C(N)=O)cc1NC(=O)c1cccc(F)c1,AC50,Cytochrome P450 2D6,inconclusive
same,AC50,Cytochrome P450 1A2,5.01 µM (inconclusive)
same,EC50,[20],> 112 µM (not active)
same,EC50,[21],> 112 µM (not active)
C=CCn1c(C)cc(C2=NN=C(NC(C)(C)C)SC2)c1C,AC50,[22],4.09 µM (active)
CCOC(=O)C(/C=N/c1cc(C)ccc1C)=C(\O)OCC,IC50,[3],> 80 µM (inactive)
COC(=O)[C@@]12OC[C@]34[C@H]([C@@H](O)[C@@H]1O)[C@@]1(C)C(=O)C(O[C@@H]5OC(CO)[C@@H](O)[C@@H](O)[C@@H]5O)=C[C@@H](C)[C@@H]1C[C@H]3OC(=O)[C@H](OC(=O)/C=C(\C)C(C)(C)OC(C)=O)[C@@H]24 (some centres not stated),IC50,[3],> 80 µM (inactive)
